Results on 5 compounds are retold here after patent US20110251189A1, “HYPOXIA TARGETED COMPOUNDS FOR CANCER DIAGNOSIS AND THERAPY” (priority 2008, published 2011).

By IC50 is commonly meant the concentration that gives 50% inhibition.

Assay [1] relates to HepG2 cells. The assay can be described thus: Survival (MTT) cytotoxicity assay in HepG2 cells under normoxic or hypoxic conditions. The assay is classed as cell-based. To be noted: for IC50: Homo sapiens, MTT assay; for toxicity in hypoxic versus normoxic exposure: transient exposure to hypoxic conditions. The method, then:
Cell Culture and Cytotoxicity Assays. HepG2 cells (passage 2 from frozen stock) were cultured in RPMI 1640 containing 10% FBS. The tests were performed in 96-well plates with stock cells split equally into duplicate plates—one for normoxic and the other for hypoxic conditions. The drug(s) or vehicle (0.1% DMSO) was applied to the cells in log-exponential growth phase under normoxic conditions (5% CO2; 37 C) for 48 hours or under normoxic conditions (22 hr) followed by 2 hr hypoxic conditions (1% O2, 5% CO2, 94% N2 at 37° C.) then followed by reoxygenation for 24 hrs. For the hypoxia experiments, a glove chamber with two-way pressure value and one-way N2 inflow was used. Hypoxia conditions were met using methylene blue dye indicator (i.e. 0.015% methylene blue, 6% dextrose, 6 mM NaOH) which correlated with the O2 pressure in the glove box when measured continuously with a Clark-type electrode.^13
At 48 hrs, a tetrazolium component (MTT) assay (Promega, Madison, Wis.; Cell Titer 96 Non-Radioactive Cell Proliferation Assay) was performed following an established protocol in the laboratory. Since these assays depend on mitochondrial function, which may be affected by the state of oxygenation, clonogenic assays to verify survival function were also performed. It is important to note that the data presented for the MTT assay normalizes the OD595 for the drug treated wells (minus background) to its own vehicle treated well(s) under either normoxic or hypoxic conditions. These values are then plotted as a percentage (×100%) surviving 48 hrs of drug(s) or vehicle treatment under the said condition. These analyses have also been performed previously for other hypoxia studies.^14,15
For orientation: Tetrazolium dyes change colour on reduction, which living cells bring about.

Assay [2] has as its system HepG2 cells. The assay can be described thus: HepG2 clonogenic assay (colony count) under normoxic or hypoxic conditions. The settings on record: for cells dead / colonies dead: hypoxic conditions; for cells dead / cells dead compared with controls: 50 μM; for cells dead: p<0.00001 vs control treated hypoxic conditions; for colonies dead / colonies alive relative to controls: ~10 μM; for colonies dead: p<0.001 vs control treated cells; for cells dead compared with controls / colonies alive relative to controls: normoxic cells; for colonies alive relative to controls: FIG. 5. The format is cell-based. On the procedure: In the HepG2 clonogenic assays, 3.5×10^3 per well were seeded in 6-well plates using RPMI1640 and 10% FBS. After 24 hrs of growth at 37° C., the cells were exposed to vehicle or drug(s). After 10 days incubation with drug(s) or control, the wells were washed with PBS twice, then fixed in 10% acetic acid for 10 min, then stained with crystal violet for 10 min, and finally rinsed with distilled water at room temperature. The colonies (>50 μm likely representing >50 cells) were then visually counted in randomly chosen 1-mm×1-mm grid repeated three times. Statistical analyses of the mean number of colonies were performed by using the Mann-Whitney t test, with significant differences established as P<0.05 as previously published by the laboratory.^16 For the hypoxia conditions, after 24 hr growth in normoxic conditions as above, the vehicle or drug(s) treated cells were exposed to hypoxic environment (1% O2, 5% CO2, 94% N2 at 37° C.) for 5 hrs, followed by re-oxygenation (5% CO2; 37° C.) for the remaining 10 days.

[3] abbreviates: 22 hr normoxia, 2 hr hypoxia (1% O2), reoxygenation 24 hrs, read-out: IC50 (hypoxia).
Where [4] appears, read: normoxic conditions 48 hours, read-out: IC50 (normoxia).

Where two headings read alike, the source gives them in different places. Some results are limits rather than exact numbers.

Take `O=[N+]([O-])c1ccc2c(c1)N=C(c1ccc(Cl)cc1)CO2` [Compound 7]: in assay [1] (setting [3]), the IC50 was 20 ± 1.2 µM. For the same compound, the IC50 in assay [1] (setting [4]) is 78 ± 1.4 µM. For the same compound, in assay [1], the “toxicity in hypoxic versus normoxic exposure” value is listed as “significantly more toxic to hypoxic exposure than to normoxic exposure”. In assay [2], the cells dead is roughly 83%, the colonies dead was roughly 28%, the “cells dead compared with controls” value was roughly 11% and the “colonies alive relative to controls” value was roughly 110%.

In the case of `c1ccc(C2=Nc3ccccc3OC2)cc1` [Compound 3], in assay [1] (setting [3]), the IC50 amounted to 10.8 ± 1.4 µM. Also, the IC50 in assay [1] (setting [4]) turned out to be 87 ± 1.3 µM. In addition, in assay [1], the “toxicity in hypoxic versus normoxic exposure” value is listed as “significantly more toxic to hypoxic exposure than to normoxic exposure”. For the same compound, in assay [2], the cells dead was roughly 98%, the colonies dead is roughly 71%, the “cells dead compared with controls” value is listed as roughly 12% and the “colonies alive relative to controls” value is on record as roughly 105%.

`Cc1ccc2c(c1)N=C(c1ccc(Cl)cc1)CO2` [Compound B47.4]: the values for the IC50 in assay [1] (setting [3]) and in assay [1] (setting [4]) were 87 ± 1.8 µM and greater than 600 µM, respectively.

Regarding `Clc1ccc(C2=Nc3ccc(Cl)cc3OC2)cc1` [Compound B47.2], the IC50 in assay [1] (setting [3]) was 28 ± 1.6 µM; in assay [1] (setting [4]) it was 88 ± 2.4 µM.

As to `Clc1ccc2c(c1)N=C(c1ccccc1)CO2` [Compound 4], the 50% inhibitory concentration (IC50) in assay [1] (setting [3]) was found to be 30 ± 2.4 µM; in assay [1] (setting [4]), 78 ± 1.2 µM.
